How the values were obtained:
Assay in all cases: NCI 60 cell line screen
HCT-116 = assay type: cell-based, human; settings: HCT-116, Colon Cancer; single concentration 10^−5 M
Description: The cytotoxic activity of nortopsintin analogs (4a-4j) was determined by the national cancer institute (NCI, Bethesda, Maryland, USA) against 60 different cancer cell lines at a single concentration of (10^-5 M). For the determination of IC50 value, we used MTT assay kit (Sigma) according to the manufacturer's protocol. HCT-116 cells were seeded into a 96-well plate at a concentration of 20,000 cells/well. After 24 h, the media was aspirated and replaced with serum-free media containing serial dilutions of the 4i compound. […] The percentage of cytotoxicity was calculated using the following equation: % Cytotoxicity = [1 - ([…])] × 100.

EKVX = assay type: cell-based; settings: Non-Small Cell Lung Cancer, single concentration 10^−5 M
In short: (§1)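 The National Cancer Institute (Bethesda) ran the cytotoxicity testing, exposing each of 60 cancer cell lines to one concentration, 10^-5 M.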

OVCAR-5 = assay type: cell-based; settings: OVCAR-5, Ovarian Cancer; single concentration 10^−5 M
In short: as §1

UO-31 = assay type: cell-based; settings: UO-31, Renal Cancer; single concentration 10^−5 M
In short: as §1

UACC-257 = assay type: cell-based; settings: UACC-257, Melanoma; single concentration 10^−5 M
In short: as §1

NCI-H322M = assay type: cell-based; settings: Non-Small Cell Lung Cancer, single concentration 10^−5 M
In short: as §1

SK-MEL-28 = assay type: cell-based; settings: SK-MEL-28, Melanoma; single concentration 10^−5 M
In short: as §1

HOP-92 = assay type: cell-based; settings: HOP-92, Non-Small Cell Lung Cancer; single concentration 10^−5 M
In short: as §1

HL-60 (TB) = assay type: cell-based; settings: Leukemia, single concentration 10^−5 M
In short: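 Readout is cytotoxic activity at one fixed dose (10^-5 M), measured by NCI within its 60-line tumour panel.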

NCI-H460 = assay type: cell-based; settings: NCI-H460, Non-Small Cell Lung Cancer; single concentration 10^−5 M
In short: as §1

HOP-62 = assay type: cell-based; settings: HOP-62, Non-Small Cell Lung Cancer; single concentration 10^−5 M
In short: as §1

IGROV1 = assay type: cell-based; settings: IGROV1, Ovarian Cancer; single concentration 10^−5 M
In short: as §1

SF-539 = assay type: cell-based; settings: SF-539, CNS Cancer; single concentration 10^−5 M
In short: as §1

MDA-MB-435 = assay type: cell-based; settings: MDA-MB-435, Melanoma; single concentration 10^−5 M
In short: as §1

MOLT-4 = assay type: cell-based; settings: MOLT-4, Leukemia; single concentration 10^−5 M
In short: as §1

HT29 = assay type: cell-based; settings: HT29, Colon Cancer; single concentration 10^−5 M
In short: as §1

HCT-15 = assay type: cell-based; settings: HCT-15, Colon Cancer; single concentration 10^−5 M
In short: as §1

BT-549 = assay type: cell-based; settings: BT-549, Breast Cancer; single concentration 10^−5 M
In short: as §1

HS 578T = assay type: cell-based; settings: Breast Cancer, single concentration 10^−5 M
In short: as §1

LOX IMVI = assay type: cell-based; settings: Melanoma, single concentration 10^−5 M
In short: as §1

SNB-75 = assay type: cell-based; settings: SNB-75, CNS Cancer; single concentration 10^−5 M
In short: as §1

SN12C = assay type: cell-based; settings: Renal Cancer, single concentration 10^−5 M
In short: as §1

M14 = assay type: cell-based; settings: M14, Melanoma; single concentration 10^−5 M
In short: as §1

Structure (SMILES) | Growth % (HCT-116) [%] | Growth % (EKVX) [%] | Growth % (OVCAR-5) [%] | Growth % (UO-31) [%] | Growth % (UACC-257) [%] | Growth % (NCI-H322M) [%] | Growth % (SK-MEL-28) [%] | Growth % (HOP-92) [%] | Growth % (HL-60 (TB)) [%] | Growth % (NCI-H460) [%] | Growth % (HOP-62) [%] | Growth % (IGROV1) [%] | Growth % (SF-539) [%] | Growth % (MDA-MB-435) [%] | Growth % (MOLT-4) [%] | Growth % (HT29) [%] | Growth % (HCT-15) [%] | Growth % (BT-549) [%] | Growth % (HS 578T) [%] | Growth % (LOX IMVI) [%] | also measured
N#Cc1c(-c2ccccc2)cc(-c2c[nH]c3ccccc23)nc1-c1c[nH]c2ccccc12 [4a] | 103.11 | 83.07 | 103.05 | 68.28 | 106.98 | 105.41 | 109.51 | 92.10 | 103.72 | 106.27 | 92.66 | 82.09 | 98.60 | 102.63 | 102.45 | 102.69 | 99.26 | 94.69 | 93.45 | 100.06 | Growth % (SNB-75): 81.21%; Growth % (SN12C): 95.61%; Growth % (M14): 100.81%
N#Cc1c(-c2ccc(Br)cc2)cc(-c2c[nH]c3ccccc23)nc1-c1c[nH]c2ccccc12 [4b] | 104.37 | 85.89 | 107.40 | 71.05 | 107.82 | 104.62 | 112.22 | 92.57 | 102.74 | 106.47 | 98.17 | 73.65 | 97.32 | 108.30 | 99.47 | 107.82 | 97.86 | 103.55 | 97.14 | 99.48 | Growth % (SNB-75): 91.48%; Growth % (SN12C): 96.36%; Growth % (M14): 102.89%
N#Cc1c(-c2ccc(Cl)cc2)cc(-c2c[nH]c3ccccc23)nc1-c1c[nH]c2ccccc12 [4c] | 106.26 | 87.50 | 105.15 | 70.21 | 108.88 | 103.02 | 103.30 | 99.01 | 102.90 | 106.15 | 93.62 | 91.10 | 98.85 | 106.56 | 99.33 | 107.41 | 98.27 | 113.43 | 100.65 | 101.39 | Growth % (SNB-75): 100.87%; Growth % (SN12C): 97.84%; Growth % (M14): 102.44%
N#Cc1c(-c2ccc(F)cc2)cc(-c2c[nH]c3ccccc23)nc1-c1c[nH]c2ccccc12 [4d] | 104.67 | 92.76 | 109.33 | 84.72 | 107.07 | 106.25 | 106.51 | 93.44 | 98.89 | 104.14 | 100.69 | 102.10 | 100.06 | 107.27 | 103.02 | 110.19 | 99.59 | 108.84 | 95.18 | 107.36 | Growth % (SNB-75): 98.55%; Growth % (SN12C): 98.76%; Growth % (M14): 97.40%
COc1ccc(-c2cc(-c3c[nH]c4ccccc34)nc(-c3c[nH]c4ccccc34)c2C#N)cc1 [4e] | 106.07 | 91.11 | 103.69 | 74.78 | 107.78 | 108.08 | 108.94 | 82.07 | 106.85 | 107.18 | 90.00 | 85.18 | 93.61 | 104.98 | 94.10 | 105.49 | 89.77 | 97.48 | 100.69 | 86.06 | Growth % (SNB-75): 97.63%; Growth % (SN12C): 99.19%; Growth % (M14): 93.75%
COc1cc(OC)cc(-c2cc(-c3c[nH]c4ccccc34)nc(-c3c[nH]c4ccccc34)c2C#N)c1 [4f] | 100.81 | 91.45 | 108.89 | 71.31 | 112.07 | 104.89 | 100.94 | 95.02 | 101.74 | 103.37 | 96.31 | 93.71 | 94.25 | 99.41 | 98.62 | 108.12 | 101.68 | 103.60 | 102.35 | 82.70 | Growth % (SNB-75): 87.63%; Growth % (SN12C): 95.11%; Growth % (M14): 94.97%
COc1cc(-c2cc(-c3c[nH]c4ccccc34)nc(-c3c[nH]c4ccccc34)c2C#N)cc(OC)c1OC [4g] | 104.41 | 87.27 | 103.55 | 65.92 | 104.77 | 93.11 | 107.46 | 92.84 | 101.32 | 106.65 | 87.93 | 74.20 | 93.66 | 100.31 | 100.72 | 105.35 | 100.84 | 101.50 | 99.50 | 98.85 | Growth % (SNB-75): 77.85%; Growth % (SN12C): 91.09%; Growth % (M14): 98.40%
N#Cc1c(-c2ccc([N+](=O)[O-])cc2)cc(-c2c[nH]c3ccccc23)nc1-c1c[nH]c2ccccc12 [4h] | 100.64 | 82.20 | 105.31 | 70.38 | 104.66 | 95.29 | 106.75 | 98.33 | 97.00 | 100.56 | 99.88 | 81.21 | 97.59 | 104.27 | 100.27 | 111.20 | 99.04 | 108.68 | 94.79 | 92.89 | Growth % (SNB-75): 90.31%; Growth % (SN12C): 98.48%; Growth % (M14): 97.98%
